These results are taken from US10543155B2, “Compositions containing zinc salts and isothiocyanates for reduction of oral volatile sulfur compounds (VSCs)” (priority 2011, dated 2020).

A short description of assay [1]: in vitro reduction of headspace H2S by isothiocyanates (GC-SCD). The following applies: for Peak Area (headspace H2S): 200 ppm H2S in 5 ml PBS pH 7.4, 5 min 37° C. As for the experimental part: A stock solution of H2S was prepared by a serial dilution in PBS buffer (pH 7.4), with a final concentration of 200 ppm. Allyl isothiocyanate, benzyl isothiocyanate, ethyl isothiocyanate and 3-methylthiopropyl isothiocyanate (all from Sigma-Aldrich) were dissolved in pure ethanol to form 1.0% of working solution of each. A total of 5 ml PBS buffer containing 200 ppm of H2S in a headspace vial (22 ml volume) was mixed with 0.125, 0.25, 0.5 and 1 mg of each isothiocyanate compound for 5 min at 37° C., respectively. The headspace sample was injected into the GC-SCD by an automatic sampler for VSC analysis. The reduction of headspace concentration of H2S was calculated by the formula below: […]
In view of the results pertaining to allyl isothiocyanate in Table 1, Applicants further evaluated allyl isothiocyanate in vitro for its VSC elimination effect of hydrogen sulfide (H2S). A […] headspace vial containing 5 ml of PBS solution and 200 ppm of H2S was treated with various concentrations of allyl isothiocyanate, respectively (0.25-1.0 mg). In a standard experimental protocol, a stock of hydrogen sulfide solutions were prepared by dissolving c.a. 0.10 g of sodium sulfide in a total of 10 ml phosphate buffer solution (PBS) (pH 7.4). It was further diluted in PBS to produce a working solution contained 200 ppm of H2S in buffer.

Assay [2] can be described thus: in vitro headspace GC-SCD test of zinc salts against H2S. The note with it: 5 ml PBS containing 1 mg H2S, 37° C. 5 min; for reduces the oral malodor produced by hydrogen sulfide (H2S): FIG. 2. As for the experimental part: In another experiment, 5 ml of PBS solution containing 1 mg of H2S was prepared via a serial dilution in a 22 ml headspace vial for FIG. 2 below. Different amounts of zinc salts were added and mixed at 37° C. for 5 min. The headspace concentration of H2S was analyzed by GC-SCD.

Assay [3] is described as follows: zinc lactate and AITC against VSC mixture, headspace GC-SCD: H2S. The following applies: 1 mg in 5 ml VSC mixture (200 ppm H2S, 40 ppm CH3SH), 37° C. 5 min, FIG. 4. On the procedure: (§1) The final concentrations of H2S and CH3SH in solution were a 200 and 40 ppm, respectively. The final amount of VSC was 1.2 mg in the test vial. Although the headspace concentrations of H2S and CH3SH were well above the level found in a typical foul mouth air (200-500 parts per billion), the total amount of VSC was close to the amount presented in oral cavity. Subsequently, 5 ml of the VSC mixture was kept in a 22 ml tight screw cap headspace vial at 37° C. for 5 min. The headspace sample was injected into a GC column with an SCD detector. […] The large peak area of CH3SH reflects its volatility in the headspace compared with H2S.
(§2) Separately, 1 mg of zinc lactate, or 1 mg of allyl isothiocyanate (AITC), or combination of 1 mg Zinc lactate and 1 mg of AITC were added to each of headspace vial containing 5 ml VSC mixture and equilibrated at 37° C. for 5 min. Each headspace sample was injected into a GC column by a Combi-Pal auto-sampler. The amount of sulfur was analyzed by an Agilent SCD-355 chemoluminescent sulfide detector.

A short description of assay [4]: zinc lactate and AITC against VSC mixture, headspace GC-SCD: CH3SH. The following applies: 1 mg in 5 ml VSC mixture (200 ppm H2S, 40 ppm CH3SH), 37° C. 5 min, FIG. 4. On the procedure: as §1, §2
Assay [5] in a line: in vitro headspace GC-SCD test of zinc salts against methyl mercaptan. The note with it: 200 ppm CH3SH in 5 ml PBS pH 7.4, 5 minutes at 37° C., FIG. 1.
Description: For evaluation of the efficacy of various zinc salts against specific VSCs, the Applicants established an in vitro method using a headspace gas-chromatograph equipped with a sulfur detector. Thus, a total of 200 ppm of CH3SH in 5 ml of phosphate buffer solution (PBS) was prepared. The pH was maintained at 7.4. […] The headspace sample was injected into a gas chromatograph sulfur chemiluminescence detector (GC-SCD).
The mark [6] stands for this setting: 50 ppm isothiocyanate, 200 ppm H2S.
Where [7] appears, read: 100 ppm isothiocyanate, 200 ppm H2S.
Setting [8] is: 200 ppm isothiocyanate, 200 ppm H2S.

With `CSCCCN=C=S` [3-methylthiopropyl isothiocyanate], the “% Reduction of headspace concentration (H2S)” value (“% Reduction” for short) in assay [1] (setting [6]) was 51%; in assay [1] (setting [7]), 75%; in assay [1] (setting [8]), 94.5%. Further, the “Peak Area (headspace H2S)” value is given as 416687277 in assay [1] (50 ppm isothiocyanate), 211177117 in assay [1] (100 ppm isothiocyanate) and 46897168 in assay [1] (200 ppm isothiocyanate).
With `S=C=NCc1ccccc1` [Benzyl isothiocyanate, benzyl isothiocyanate], the “% Reduction” value in assay [1] (25 ppm isothiocyanate, 200 ppm H2S) is listed as 42%; in assay [1] (setting [6]) it was 53%; in assay [1] (50 ppm isothiocyanate, 200 ppm H2S, listed as benzyl isothiocyanate) it was “greater than 50%”. Moreover, the “Peak Area (headspace H2S)” value in assay [1] (25 ppm isothiocyanate) is reported as 491908604; in assay [1] (50 ppm isothiocyanate) it was 398519292.
Consider zinc ascorbate, for which the “reduces the oral malodor produced by hydrogen sulfide (H2S)” value (“reduces the oral malodor produced” below) in assay [2] was “reduces”.
Consider `C=CCN=C=S` [Allyl isothiocyanate, allyl isothiocyanate], for which the “Reduction of H2S” value in assay [1] (0.25 mg allyl isothiocyanate, 5 ml PBS, 200 ppm H2S) is 49.0%; in assay [1] (0.5 mg allyl isothiocyanate, 5 ml PBS, 200 ppm H2S) it was 98.4%; in assay [1] (1 mg allyl isothiocyanate, 5 ml PBS, 200 ppm H2S) it was 99.5%; in assay [1] (at 100 ppm or greater) it was “greater than 90%”. In addition, the “% Reduction” value in assay [1] (setting [6]) turned out to be 49%; in assay [1] (setting [7]) it was 98.4%; in assay [1] (setting [8]), 99.5%. In addition, the figures for the “Peak Area (headspace H2S)” value in assay [1] (50 ppm isothiocyanate), in assay [1] (100 ppm isothiocyanate) and in assay [1] (200 ppm isothiocyanate) were 431713256, 13651581 and 4266119, respectively. Also, in assay [3], the H2S eliminated is reported as 98%. The CH3SH eliminated in assay [4] is reported as 78%.
Turning to `CCN=C=S` [Ethylisothiocyanate, ethyl isothiocyanate], the “% Reduction” value in assay [1] (setting [6]) is −13%; in assay [1] (setting [7]), 14.9%; in assay [1] (setting [8]), 68%; in assay [1] (200 ppm isothiocyanate, 200 ppm H2S, listed as ethylisothiocyanate), 68%. For the same compound, the “Peak Area (headspace H2S)” value was found to be 963110533 in assay [1] (50 ppm isothiocyanate), 726258436 in assay [1] (100 ppm isothiocyanate) and 271822727 in assay [1] (200 ppm isothiocyanate).
`CC(O)C(=O)[O-].CC(O)C(=O)[O-].[Zn+2]` (stereo not drawn) [zinc lactate]: the “reduces the oral malodor produced” value in assay [2] is given as “reduces”. Further, the “amount of zinc salt above which H2S is reduced” value in assay [2] (in vitro) is given as “greater than 0.25 mg”. In addition, in assay [3], the H2S eliminated was determined as 98%. For the same compound, the CH3SH eliminated in assay [4] is listed as 0%. Also, the “reducing the headspace concentration of methyl mercaptan (CH3SH)” value in assay [5] was “ineffective”.
Take zinc hydrogen aspartate: the “reduces the oral malodor produced” value in assay [2] is on record as “reduces”.
For zinc gluconate, the “reduces the oral malodor produced” value in assay [2] was “reduces”. Moreover, the “reducing the headspace concentration of methyl mercaptan (CH3SH)” value in assay [5] is “ineffective”.
